Measurements as given in US9567331B2 (priority 2011, dated 2017).

Columns and labels:
[1] = test system: wild-type vaccinia strain Western Reserve; assay type: cell-based
[2] = test system: vaccinia virus; assay type: cell-based
[3] = test system: viral DNA replication (LV virus); assay type: cell-based
[4] = test system: LREV virus (late red early Venus reporter vaccinia virus); assay type: cell-based
[5] = test system: LV virus late reporter expression; assay type: cell-based, vaccinia strain Western Reserve
[6] = test system: LV virus / LR virus in A549 cells; assay type: cell-based, vaccinia strain Western Reserve
[7] = test system: EV, IV and LV reporter viruses; assay type: cell-based
[8] = test system: monkeypox Zaire 1979 (MPDX); assay type: cell-based
[9] = test system: EV, IV and LV reporter mRNA; assay type: cell-based, vaccinia strain Western Reserve
[10] = test system: A549 and HeLa cells
[11] = test system: HIV/Lai; assay: microbe, parasite or virus in culture; assay type: cell-based; settings: Human immunodeficiency virus 1, TZM-bl, read-out: IC50, inhibition of HIV
[12] = test system: late Venus; LV virus (Venus under control of the late F17R promoter); assay type: cell-based, vaccinia strain Western Reserve
[13] = test system: TrpV reporter virus; assay type: cell-based
[14] = test system: vaccinia virus strain IHDJ; assay type: cell-based
[15] = test system: cellular and viral protein synthesis
[16] = test system: cowpox Brighton red (CPX); assay type: cell-based

In the case of `O=C(NN1C(=O)[C@@H]2[C@@H]3C=C[C@@H]([C@H]4C[C@@H]34)[C@@H]2C1=O)c1ccc(C(F)(F)F)cc1` [ST-246], the “virus yield reduction, single-cycle” value [1] is reported as 0.3 log.

For `CC(=O)C1=C2C=C(C)CCN2C(=O)NC1c1ccccc1` (centres unmarked) [Compound 3b, 4-acetyl-6-methyl-3-phenyl-2,3,7,8-tetrahydro-1H-pyrido[1,2-c]pyrimidin-1-one], the “antiviral activity compared with CMLDBU6128” value [2] was “demonstrated antiviral activity but were significantly less active than CMLDBU6 128”.

For `COC(=O)C1=C2C=C([Si](C)(C)C)CCN2C(=O)NC1c1ccccc1` (centres unmarked) [Compound 4c, methyl 1-oxo-3-phenyl-6-(trimethylsilyl)-2,3,7,8-tetrahydro-1Hpyrido[1,2-c]pyrimidine-4-carboxylate], the melting point was 169 to 172 °C.

With `Nc1ccn([C@@H]2O[C@H](CO)[C@@H](O)[C@@H]2O)c(=O)n1` [AraC] the “virus yield reduction, single-cycle” value [1] was 3.5 log.

In the case of `CC(=O)C1=C2C=CCCN2C(=O)N[C@H]1c1ccccc1` [CMLDBU6128, 4-acetyl-2,3,7,8-tetrahydro-3-phenylpyrido[1,2-f]pyrimidin-1-one], the “Venus DNA copies/c.e.” value [3] is reported as 529 copies/c.e, the “viral DNA replication” value [3] is reported as “occurred normally” and the “antiviral activity of screening hit” value [4] is reported as “strongly antiviral”. The “reporter expression after drug removal” value [5] was “drug removal did not result in a restart of reporter expression”, the “time to flattening of late reporter expression after addition to an unimpeded 10 h infection” value [5] was no more than 2 h and the “viral spread after low MOI infection” value [6] was “limits viral spread after low MOI infection”. For the same compound, the “EV (early) reporter expression” value [7] was “unaffected”, the “IV (intermediate) reporter expression” value [7] was “only reached half-maximal levels” and the “reduction of maximum LV (late) reporter fluorescence” value [7] was “approximately 85%”. For the same compound, the viral yield reduction [8] was 2.5 log, the “EV reporter mRNA accumulation” value [9] was “unaffected” and the “reduction of peak IV reporter mRNA” value [9] was 41%. For the same compound, the “reduction of peak LV reporter mRNA” value [9] was 73%, the “cytotoxicity of screening hit” value [10] was “not cytotoxic” and the cell cytotoxicity ([10]; 24 h) was “little to no cell cytotoxicity”. The IC50 [11] was roughly 20 µM, the “virus yield reduction, single-cycle” value [1] was 3.6 log and the IC50 ([12]; read-out: IC50 for LV reporter expression) was roughly 5.3 µM. The IC90 ([12]; read-out: IC90 for LV reporter expression) was roughly 10.4 µM, the “early Venus expression (TrpV)” value [13] was “no detectable effect” and the “mCherry and late TagBFP expression (TrpV)” value [13] was “reduced mCherry and late TagBFP expression uniformly”. The viral yield reduction [14] was 2.4 log, the “cellular protein synthesis in mock-infected cells” value [15] was “unaffected” and the viral protein synthesis [15] was “globally reduced”. It also gave a viral yield reduction [16] of 4.0 log.
